Experimental data as given in patent publication US6486198B1, “Compounds and methods for the treatment of post traumatic stress disorder” (priority 1999, dated 2002).

Tests used:
[1] = tested on: seizures in rodent models of epilepsy; details: several rodent models; cited from earlier work
PTSD symptoms (PCL-C) = assay: PTSD Checklist-Civilian Version (PCL-C) self-report scale at baseline and 4 weeks after starting topiramate; format: in vivo, human; details: 17 patients
Protocol: Topiramate was added naturalistically to existing pharmacotherapy (see Table 1 for concomitant medications at start of trial), starting at 25 mglday and increasing whenever possible by 25 to 50 mg/day every 3 to 4 days to clinical response. Target symptoms were DSM-IV PTSD criterion B symptoms of nightmares (N =24) and intrusions (intrusive recollections/flashbacks, N=35) involving re-experiencing of traumas. Definitions of improvement, as assessed from patient self-report, included “partial response” as “definite reduction in intensity and frequency of nightmares or intrusions”, and “full response” as “complete cessation of nightmares and intrusions for a sustained period”. Following the seminal observations, in order to systematically identify responsive symptoms, the next 17 patients completed a self-report scale, the PTSD Checklist—Civilian Version (PCL-C)15, at baseline and at 4 weeks after starting topiramate. The patients were instructed to complete the PCL-C for experiences corresponding to traumas consistent with DSM-IV criterion A for PTSD. Paired ttest scores for the PCL-C were calculated with Jandel SigmaStat® v. 2.0.
Response was also assessed in 17 patients who completed the PCL-C prior to topiramate therapy and at Week 4 of treatment: mean total PCL-C scores were 60±10.4 at baseline and 39±10.5 at Week 4 (instrument range: 17 to 85, threshold for active PTSD=[…], paired t-test). Adjusting the baseline score by subtracting by 17 to set the score for no PTSD symptoms to zero, there was a 48% reduction (59.8 to 38.8)/(59.8-17) in total score. Subscale score reductions were similar for criterion B (re-experiencing), criterion C (avoidance), and criterion D (hyperarousal) symptoms: 60%, 49%, and 42%, respectively.

[2] = tested on: simple and complex partial seizures and secondarily generalized seizures; details: cited from earlier work

SMILES: CC1(C)O[C@@H]2[C@@H](CO[C@@]3(COS(N)(=O)=O)OC(C)(C)O[C@@H]23)O1 [Topiramate, 2,3:4,5-bis-O-(1-methylethylidene)-β-D-fructopyranose sulfamate]
- Seizure block in rodent models of epilepsy [1]: effectively block seizures
- PCL-C subscale score reduction, criterion B (re-experiencing) (PTSD symptoms (PCL-C); baseline vs Week 4): 60%
- PCL-C subscale score reduction, criterion C (avoidance) (PTSD symptoms (PCL-C); baseline vs Week 4): 49%
- PCL-C subscale score reduction, criterion D (hyperarousal) (PTSD symptoms (PCL-C); baseline vs Week 4): 42%
- Reduction in total PCL-C score (baseline adjusted by subtracting 17) (PTSD symptoms (PCL-C); baseline vs Week 4): 48%
- Mean total PCL-C score at Week 4 (PTSD symptoms (PCL-C); baseline 60±10.4, instrument range 17 to 85, threshold for active PTSD=50): 39±10.5
- Efficacy in treatment of seizure types ([2]; adults and children): efficacy in the treatment of a broad range of seizure types
- Efficacy in clinical trials of human epilepsy ([2]; simple and complex partial seizures and secondarily generalized seizures): effective as adjunctive therapy or as monotherapy
